Results as given in patent US7108997B2, “Assay for detecting inhibitors of the enzyme myeloperoxidase” (AstraZeneca AB, priority 2001, dated 2006).
Where two headings read alike, the source gives them in different places.

Tests used:
Type in all cases: biochemical
[1] = target: T1, purified human myeloperoxidase (Homo sapiens, UniProt P05164); assay: Taurine chloramine/TMB assay of HOCl production by purified myeloperoxidase with test compounds; conditions: for [HOCl]: HOCl generated by myeloperoxidase in presence of 10 μM test compounds (DMSO 0.1%), stopped after five minutes with catalase, None = 56.2 ± 2.1; for % Inhibition: inhibition of HOCl production, 10 μM test compounds (DMSO 0.1%), negative = enhancement
T1 sequence (P05164 49-745): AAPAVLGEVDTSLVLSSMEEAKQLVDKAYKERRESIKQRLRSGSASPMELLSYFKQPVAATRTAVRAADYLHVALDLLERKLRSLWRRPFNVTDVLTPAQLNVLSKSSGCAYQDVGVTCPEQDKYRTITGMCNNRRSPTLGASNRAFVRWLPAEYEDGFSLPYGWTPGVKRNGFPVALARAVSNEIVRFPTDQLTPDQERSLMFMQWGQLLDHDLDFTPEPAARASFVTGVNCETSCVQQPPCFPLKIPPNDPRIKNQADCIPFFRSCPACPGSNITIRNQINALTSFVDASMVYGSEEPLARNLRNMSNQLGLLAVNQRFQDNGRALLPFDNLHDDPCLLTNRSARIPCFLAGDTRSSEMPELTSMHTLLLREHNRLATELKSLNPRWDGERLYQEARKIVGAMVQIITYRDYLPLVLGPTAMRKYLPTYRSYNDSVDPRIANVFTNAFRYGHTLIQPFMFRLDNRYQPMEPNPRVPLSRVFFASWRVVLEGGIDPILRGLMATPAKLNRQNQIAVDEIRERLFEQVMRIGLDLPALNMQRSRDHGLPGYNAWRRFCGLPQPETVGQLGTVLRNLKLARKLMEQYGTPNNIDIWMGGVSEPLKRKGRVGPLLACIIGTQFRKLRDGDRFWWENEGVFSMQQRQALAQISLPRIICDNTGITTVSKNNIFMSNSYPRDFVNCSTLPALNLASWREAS
Description: The taurine chloramine assay of the present invention was used to detect HOCl generated by purified human myeloperoxidase. Hydrogen peroxide (100 μM) was added to 20 mM phosphate buffer pH 6.5 containing 20 nM myeloperoxidase, 100 mM NaCl and 10 mM taurine. The mixture was incubated for 15 minutes at room temperature and the reaction stopped by adding catalase (10 μg/ml). Five minutes later developing reagent was added to detect the generated taurine chloramine. The amount of taurine chloramine produced was compared to that formed by adding 100 μM HOCl to the PBST. […] The concentration of stock hydrogen peroxide was determined using E240 43.6 M^−1 cm^−1 and that of stock hypochlorite using E292 350 M^−1 cm^−1.
Hypochlorous acid was generated by myeloperoxidase in the absence or presence of 10 μM test compounds under the conditions described above for the time course experiment. Reactions were initiated by adding hydrogen peroxide and stopped five minutes later by adding catalase.

MPO [2] = target: T2, MPO (Homo sapiens, UniProt P05164); assay: In vitro MPO assay measuring HOCl production (Example 1); design: purchased Planta
T2 sequence (P05164 49-745): T1 sequence (P05164 49-745)
Description: Here we describe an in vitro MPO assay that was developed to assess inhibition of enzyme activity. Essentially the MPO assay was designed to measure the production of hypochlorous acid (HOCl), which is the key physiological product generated by the enzyme in vivo. An outline of the assay reactions is given:
Compounds were preincubated with the MPO enzyme in buffer for about 15 minutes prior to start of the reaction with H2O2. The whole reaction was carried out at room temperature for 10 minutes in a 96-well plate. […] All test concentrations were done in duplicate with at least two separate determinations (n=2; unless otherwise stated). The inhibitory concentration for a compound is presented as pIC50, which is −log IC50.

MPO [3] = target: T2, MPO; assay: MPO taurine chloramine/TMB assay with catalase stop (Example 5)
Description: Assay buffer: 20 mM sodium/potassium phosphate buffer pH 6.5 containing 10 mM taurine and 100 mM NaCl.
Developing reagent: 2 mM TMB, 200 μM KI, 200 mM acetate buffer pH 5.4 with 20% DMF.
To 10 μl of diluted compounds in assay buffer, 40 μl of MPO (final concentration 2.5 nM) was added for 10 minutes at room temperature. Then 50 μl of H2O2 (final concentration 100 μM), or assay buffer alone as a control, were added for 10 minutes at room temperature. […] Plates were mixed and subsequently read at 650 nm.

[4] = target: T1, purified human myeloperoxidase; assay: Taurine chloramine/TMB assay of HOCl production by purified myeloperoxidase with test compounds; conditions: catalase at 20 μg/ml

Row | [HOCl] [1] | inhibition at 10 µM ([1]; read-out: % Inhibition) | Compound | other results
1 | 107.0 ± 0.5 µM | -90% | N[C@@H](Cc1ccc(O)cc1)C(=O)O [Tyrosine] | 
2 | 8.8 ± 1.3 µM |  | Catalase | % Inhibition [1]: 84%; inhibition of the formation of HOCl [4]: 90%

The remaining lines, values behind:

Row | Compound | [HOCl] [1] | inhibition at 10 µM ([1]; read-out: % Inhibition) | other results
3 | COc1ccc(OC)cc1 [1,4-Dimethoxybenzene] | 15.2 ± 1.0 µM | 73% | 
4 | COc1ccc2[nH]cc(CCO)c2c1 [5-Methoxytryptophol] |  |  | IC50 (MPO [2]): 501 nM
5 | C[S+](C)[O-] [DMSO, dimethylsulphoxide] | 52.8 ± 1.2 µM |  | % Inhibition [1]: 6%
6 | Nc1ccc(S(=O)(=O)c2ccc(N)cc2)cc1 [Dapsone] | 1.8 ± 0.1 µM | 97% | IC50 (MPO [3]; in the absence of tyrosine): 257 ± 73 nM; IC50 (MPO [3]; in the presence of 8 μM tyrosine): 7120 ± 610 nM
7 | Nc1ccc(S(=O)(=O)Nc2nccs2)cc1 [N-1(2-thiazolyl)-sulfanilamide] |  |  | IC50 (MPO [2]): 1000 nM
8 | Nc1ccc(Br)cc1 [p-Bromoaniline] | 2.5 ± 0.1 µM |  | inhibition at 10 µM [1]: 95.6%
